# Results: BindingDB's records for doi:10.1021/jm020056z (University of Newcastle, 2002)
# Tests used:
# [1] = target: T1, Cyclin-A2 [171-432]/Cyclin-dependent kinase 2 (Homo sapiens, UniProt P24941); test: Kinase Inhibition Assay
# T1 construct: 171-432
# [2] = target: Cyclin-dependent kinase 1/G2/mitotic-specific cyclin-B (Marthasterias glacialis, UniProt P15206+Q9DGD3); test: Kinase Inhibition Assay
# Sequence of Cyclin-dependent kinase 1/G2/mitotic-specific cyclin-B (Q9DGD3 whole entry): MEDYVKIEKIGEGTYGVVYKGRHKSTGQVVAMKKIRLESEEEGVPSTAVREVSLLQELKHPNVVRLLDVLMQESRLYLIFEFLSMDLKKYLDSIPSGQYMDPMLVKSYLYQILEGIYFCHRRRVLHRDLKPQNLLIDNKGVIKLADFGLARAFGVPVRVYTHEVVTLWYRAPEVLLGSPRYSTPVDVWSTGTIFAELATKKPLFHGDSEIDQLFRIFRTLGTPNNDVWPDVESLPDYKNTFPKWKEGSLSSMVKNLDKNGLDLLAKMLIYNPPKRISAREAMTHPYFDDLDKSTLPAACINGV
# Sequence of Cyclin-dependent kinase 1/G2/mitotic-specific cyclin-B (P15206 whole entry): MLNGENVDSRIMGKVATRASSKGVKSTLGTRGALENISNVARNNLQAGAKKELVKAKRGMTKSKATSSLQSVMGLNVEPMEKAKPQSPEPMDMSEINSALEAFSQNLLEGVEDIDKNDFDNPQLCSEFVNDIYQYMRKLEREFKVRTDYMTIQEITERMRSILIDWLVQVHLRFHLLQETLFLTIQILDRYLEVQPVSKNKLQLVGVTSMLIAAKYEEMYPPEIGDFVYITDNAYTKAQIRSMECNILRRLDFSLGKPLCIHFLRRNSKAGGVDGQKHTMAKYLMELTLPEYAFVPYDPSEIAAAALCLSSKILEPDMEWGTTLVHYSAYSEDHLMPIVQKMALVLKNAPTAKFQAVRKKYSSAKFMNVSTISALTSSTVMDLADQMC
SMILES,IC50 [1] [µM],IC50 [2] [µM]
Nc1nc(OCC2CC=CCC2)c2[nH]cnc2n1 (stereo not drawn),16,–
CCOC(C)(COc1nc(N)nc2[nH]cnc12)OCC,33,36
